# Biological target: T1, SHP1 (Homo sapiens, UniProt P29350)
# T1 construct: gene PTPN6; domain protein
# T1 sequence (P29350 244-515 limits assumed): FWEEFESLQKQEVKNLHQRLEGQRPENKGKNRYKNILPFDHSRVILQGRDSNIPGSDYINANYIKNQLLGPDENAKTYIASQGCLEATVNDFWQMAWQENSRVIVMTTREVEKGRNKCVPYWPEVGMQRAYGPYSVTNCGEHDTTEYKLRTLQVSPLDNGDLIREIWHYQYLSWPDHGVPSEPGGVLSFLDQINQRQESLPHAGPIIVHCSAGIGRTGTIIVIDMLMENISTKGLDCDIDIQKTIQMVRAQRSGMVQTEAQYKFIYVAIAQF
# Experiment: pNPP phosphatase assay, absorbance at […] nm
# Type: biochemical
structure (smiles),measurement,value
"CO[C@@]1(C)[C@H](O)C(=O)C(C)=C(O)[C@@H]1Oc1c(C)c(O)cc(C)c1C(=O)O [S10, Roseopurpurin A]",IC50,16 µM
